# In PubChem BioAssay (NCI):
#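 Values below derive from 48-hour exposures of cells grown in 96-well plates, with endpoints linearly interpolated between the two concentrations bracketing the appropriate inhibition level. TGI is the concentration that stops growth completely.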
# Legend:
# Assay in all cases: DTP human tumour cell line panel, 48 h
# [1] = tested on: 786-0 renal
# [2] = tested on: A498 renal
# [3] = tested on: A549 NSCLC
# [4] = tested on: ACHN renal
# [5] = tested on: BT-549 breast
# [6] = tested on: CAKI-1 renal
# [7] = tested on: COLO 205 colon
# [8] = tested on: DU-145 prostate
# [9] = tested on: EKVX NSCLC
# [10] = tested on: HCC-2998 colon
# [11] = tested on: HCT-116 colon
# [12] = tested on: HCT-15 colon
# [13] = tested on: HL-60(TB) leukemia
# [14] = tested on: HOP-62 NSCLC
# [15] = tested on: HOP-92 NSCLC
# [16] = tested on: HS 578T breast
# [17] = tested on: HT29 colon
# [18] = tested on: IGROV1 ovarian
# [19] = tested on: K-562 leukemia
# [20] = tested on: KM12 colon
# [21] = tested on: LOX IMVI melanoma
# [22] = tested on: M14 melanoma
# [23] = tested on: MALME-3M melanoma
# [24] = tested on: MCF7 breast
# [25] = tested on: MDA-MB-231 breast
# [26] = tested on: MDA-MB-435
# [27] = tested on: MDA-N
# [28] = tested on: MOLT-4 leukemia
# [29] = tested on: NCI-H226 lung
# [30] = tested on: NCI-H23 lung
# [31] = tested on: NCI-H460 lung
# [32] = tested on: NCI-H522 lung
# [33] = tested on: NCI/ADR-RES ovarian
# [34] = tested on: OVCAR-3 ovarian
# [35] = tested on: OVCAR-4 ovarian
# [36] = tested on: OVCAR-5 ovarian
# [37] = tested on: OVCAR-8 ovarian
# [38] = tested on: PC-3 prostate
# [39] = tested on: RPMI-8226 leukemia
# [40] = tested on: RXF 393 renal
# [41] = tested on: SF-268 CNS
# [42] = tested on: SF-295 CNS
# [43] = tested on: SF-539 CNS
# [44] = tested on: SK-MEL-2 melanoma
# [45] = tested on: SK-MEL-28 melanoma
# [46] = tested on: SK-MEL-5 melanoma
# [47] = tested on: SK-OV-3 ovarian
# [48] = tested on: SN12C renal
# [49] = tested on: SNB-19 CNS
# [50] = tested on: SNB-75 CNS
# [51] = tested on: SR leukemia
# [52] = tested on: SW-620 colon
# [53] = tested on: T-47D breast
# [54] = tested on: TK-10 renal
# [55] = tested on: U251 CNS
# [56] = tested on: UACC-257 melanoma
# [57] = tested on: UACC-62 melanoma
# [58] = tested on: CCRF-CEM leukemia
# [59] = tested on: UO-31 renal
structure (smiles),measurement,setting,value
COCCc1c(C)c(C#N)c2n(C)c3ccccc3n2c1=O,TGI,[1],> 10 µM
same,TGI,[2],> 10 µM
same,TGI,[3],> 10 µM
same,TGI,[4],> 10 µM
same,TGI,[5],> 10 µM
same,TGI,[6],> 10 µM
same,TGI,[7],> 10 µM
same,TGI,[8],> 10 µM
same,TGI,[9],> 10 µM
same,TGI,[10],> 10 µM
same,TGI,[11],> 10 µM
same,TGI,[12],> 10 µM
same,TGI,[13],> 10 µM
same,TGI,[14],> 10 µM
same,TGI,[15],> 10 µM
same,TGI,[16],> 10 µM
same,TGI,[17],> 10 µM
same,TGI,[18],> 10 µM
same,TGI,[19],> 10 µM
same,TGI,[20],> 10 µM
same,TGI,[21],> 10 µM
same,TGI,[22],> 10 µM
same,TGI,[23],> 10 µM
same,TGI,[24],> 10 µM
same,TGI,[25],> 10 µM
same,TGI,[26],> 10 µM
same,TGI,[27],> 10 µM
same,TGI,[28],> 10 µM
same,TGI,[29],> 10 µM
same,TGI,[30],> 10 µM
same,TGI,[31],> 10 µM
same,TGI,[32],> 10 µM
same,TGI,[33],> 10 µM
same,TGI,[34],> 10 µM
same,TGI,[35],> 10 µM
same,TGI,[36],> 10 µM
same,TGI,[37],> 10 µM
same,TGI,[38],> 10 µM
same,TGI,[39],> 10 µM
same,TGI,[40],> 10 µM
same,TGI,[41],> 10 µM
same,TGI,[42],> 10 µM
same,TGI,[43],> 10 µM
same,TGI,[44],> 10 µM
same,TGI,[45],> 10 µM
same,TGI,[46],> 10 µM
same,TGI,[47],> 10 µM
same,TGI,[48],> 10 µM
same,TGI,[49],> 10 µM
same,TGI,[50],> 10 µM
same,TGI,[51],> 10 µM
same,TGI,[52],> 10 µM
same,TGI,[53],> 10 µM
same,TGI,[54],> 10 µM
same,TGI,[55],> 10 µM
same,TGI,[56],> 10 µM
same,TGI,[57],> 10 µM
CCN(CC)CCn1ncc2ccc3c(c(=O)c4cccnc4n3CCN(CC)CC)c21,TGI,[1],4.6 µM
same,TGI,[2],2.24 µM
same,TGI,[3],> 10 µM
same,TGI,[4],> 10 µM
same,TGI,[5],5.11 µM
same,TGI,[6],9.71 µM
same,TGI,[58],1.82 µM
same,TGI,[7],1.46 µM
same,TGI,[8],> 8.66 µM
same,TGI,[9],6.83 µM
same,TGI,[10],2.14 µM
same,TGI,[11],> 5.81 µM
same,TGI,[12],6 µM
same,TGI,[13],2.83 µM
same,TGI,[14],3.38 µM
same,TGI,[15],4.37 µM
same,TGI,[16],> 6 µM
same,TGI,[17],3.13 µM
same,TGI,[18],4.22 µM
same,TGI,[19],3.33 µM
same,TGI,[20],4.01 µM
same,TGI,[21],> 6.79 µM
same,TGI,[22],2.79 µM
same,TGI,[23],3.32 µM
same,TGI,[24],4.62 µM
same,TGI,[25],4.07 µM
same,TGI,[26],1.94 µM
same,TGI,[27],2.15 µM
same,TGI,[28],1.43 µM
same,TGI,[29],5.44 µM
same,TGI,[30],3.05 µM
same,TGI,[31],2.45 µM
same,TGI,[32],2.35 µM
same,TGI,[33],4.86 µM
same,TGI,[34],4.12 µM
same,TGI,[35],2.87 µM
same,TGI,[36],> 7.07 µM
same,TGI,[37],3.63 µM
same,TGI,[38],3.85 µM
same,TGI,[39],4.21 µM
same,TGI,[40],2.8 µM
same,TGI,[41],4.66 µM
same,TGI,[42],> 9.52 µM
same,TGI,[43],1.95 µM
same,TGI,[44],3.51 µM
same,TGI,[45],4.01 µM
same,TGI,[46],2.38 µM
same,TGI,[47],> 9.46 µM
same,TGI,[48],8.15 µM
same,TGI,[49],9.97 µM
same,TGI,[50],2.81 µM
same,TGI,[51],1.3 µM
same,TGI,[52],> 6.66 µM
same,TGI,[53],> 9.48 µM
same,TGI,[54],> 10 µM
same,TGI,[55],6.82 µM
same,TGI,[56],3.95 µM
same,TGI,[57],5.15 µM
same,TGI,[59],> 8.52 µM
